# Experimental data taken from paper PMC6321230, “Metabolic Stability and Metabolite Characterization of Capilliposide B and Capilliposide C by LC–QTRAP–MS/MS” (Pharmaceutics, 2018).
# Legend:
# [1] = design: method as in PMID 27859436; details: mouse, after intravenous dosing of LC-B; cited from earlier work
# [2] = system: HepG2 cells; design: method as in PMID 26678180; details: cited from earlier work
# [3] = Metabolic stability in mouse liver microsomes; details: for in vitro t1/2 in mouse liver microsomes: MLM 0.5 mg/mL, NADPH, 37 °C, substrate 1.0 μM (midazolam 0.5 μM)
# [4] = system: prostate cancer PC3; design: method as in PMID 16595968, PMID 24554216; details: cited from earlier work
# [5] = design: method as in PMID 24313264; details: oral administration; cited from earlier work
# [6] = design: method as in PMID 27521984; details: intravenous administration; cited from earlier work
# [7] = system: ovarian carcinoma A-2780; design: method as in PMID 16595968, PMID 24554216; details: cited from earlier work
# [8] = mouse, microsomes
# [9] = system: DU145 cells; design: method as in PMID 16595968, PMID 24554216; details: cited from earlier work
# [10] = design: method as in PMID 26678180; details: cited from earlier work
# [11] = system: esophageal squamous carcinoma cells; design: method as in PMID 28463955; details: cotreatment of LC-C and oxaliplatin; cited from earlier work
# [12] = Metabolic stability in human liver microsomes; details: pH 7.4
# [13] = Metabolic stability in rat liver microsomes; details: pH 7.4
smiles,measurement,setting,value
"CC1(C)C[C@@H]2[C@@]3([C@H](O)C[C@]4(C)[C@@]2(CC[C@@H]2[C@@]5(C)CC[C@H](O[C@@H]6OC[C@H](O[C@@H]7O[C@H](CO)[C@@H](O)[C@H](O)[C@H]7O[C@@H]7OC[C@@H](O)[C@H](O)[C@H]7O)[C@H](O)[C@H]6O[C@@H]6O[C@H](CO)[C@@H](O)[C@H](O)[C@H]6O)C(C)(C)[C@@H]5CC[C@]24C)O[C@@H]3O)[C@@H](O)C1 [LC-A, Capilliposide A]",main site of tissue distribution,[1],mainly distributed in mouse liver
same,cytotoxicity against HepG2 cells,[2],significant cytotoxicity
"CCCCCC(=O)O[C@H]1CC(C)(C)C[C@@H]2[C@@]13[C@H](O)C[C@]1(C)[C@@]2(CC[C@@H]2[C@@]4(C)CC[C@H](O[C@@H]5OC[C@H](O[C@@H]6O[C@H](CO)[C@@H](O)[C@H](O)[C@H]6O[C@@H]6OC[C@@H](O)[C@H](O)[C@H]6O)[C@H](O)[C@H]5O[C@@H]5O[C@H](CO)[C@@H](O)[C@H](O)[C@H]5O)C(C)(C)[C@@H]4CC[C@]21C)O[C@H]3O [LC-B, Capilliposide B]",in vitro t1/2 in mouse liver microsomes,[3],27.7 min
same,cytotoxicity against PC3,[4],significant cytotoxicities
same,bioavailability,[5],poor bioavailability
same,exposure in tissues,[5],low exposure in tissues
same,recovery in rat excreta,[6],less than 10%
same,cytotoxicity against A-2780,[7],significant cytotoxicities
same,degradation in MLM regardless of the presence of NADPH,[8],obvious degradation
same,degradation in MLM with esterase inhibitor dichlorvos,[8],remarkably inhibited
same,cytotoxicity against DU145,[9],significant cytotoxicities
"CC1(C)C[C@H](O[C@@H]2O[C@H](CO)[C@@H](O)[C@H](O)[C@H]2O)[C@@]23[C@H](O)C[C@]4(C)[C@@](CC[C@@H]5[C@@]6(C)CC[C@H](O[C@@H]7OC[C@H](O[C@@H]8O[C@H](CO)[C@@H](O)[C@H](O)[C@H]8O[C@@H]8OC[C@@H](O)[C@H](O)[C@H]8O)[C@H](O)[C@H]7O[C@@H]7O[C@H](CO)[C@@H](O)[C@H](O)[C@H]7O)C(C)(C)[C@@H]6CC[C@]54C)(O[C@@H]2O)[C@@H]3C1 [LC-C, Capilliposide C]",in vitro t1/2 in mouse liver microsomes,[3],63.0 min
same,fraction metabolized in intestinal microflora,[10],92.7%
same,cytotoxicity against PC3,[4],significant cytotoxicities
same,bioavailability,[5],poor bioavailability
same,exposure in tissues,[5],low exposure in tissues
same,cytotoxicity against A-2780,[7],significant cytotoxicities
same,degradation in MLM regardless of the presence of NADPH,[8],obvious degradation
same,degradation in MLM with esterase inhibitor dichlorvos,[8],remarkably inhibited
same,cytotoxicity against DU145,[9],significant cytotoxicities
same,chemosensitizing effect of cotreatment with oxaliplatin,[11],chemosenstizing effect
"Cc1ncc2n1-c1ccc(Cl)cc1C(c1ccccc1F)=NC2 [midazolam, Midazolam]",half-life at 0.5 μM,"[3]; mouse, microsomes, pH 7.4",3.85 min
same,half-life at 0.5 μM,[12],3.73 min
same,half-life at 0.5 μM,[13],2.35 min
